Test results published in patent EP0046377A1, “Cycloalkenylcarboxamido derivatives of tetramisole, their preparation and use in medicine” (BEECHAM GROUP PLC, priority 1980, dated 1982).
Structures can show the parent of a compound that is named as a salt.

Tests used:
Format in all cases: in vivo
[1] = test system: Nematospiroides dubius; assay: Oral administration to mice infected with Nematospiroides dubius; % reduction in worm numbers versus untreated infected controls; conditions: % reduction in numbers of worms vs untreated infected controls; for inhibition in vivo at 5 mg/kg / inhibition in vivo at 50 mg/kg: Heligmosomoides polygyrus
Description: The compounds of Examples 1 to 15 were each administered orally to mice infected with Nematospiroides dubius at various dosages. Activity was calculated as % reduction in the numbers of worms in treated as opposed to control (untreated, infected) animals.

[2] = test system: Sheep Roundworms; assay: Activity against sheep roundworms (mixed roundworm infection)
Description: (§1) A single subcutaneous injection of 5 mg/kg of the laevo amide of Example 12a, as a solution of its hydrochloride (in a mixture of propylene glycol, 70%; benzyl alcohol, 4%; and made up to 100% with water), to a sheep with a mixed roundworm infection, removed >99.9% of all worms present and was 100% active against lungworm.

[3] = test system: Fluke; assay: Test to demonstrate fluke activity in an artificially infected sheep; conditions: sheep infected with 100 metacercariae, treated orally at 30 mg/kg 4-5 months later
Description: A sheep was artificially infected with 100 metacercariae and 4 - 5 months later was treated, orally, with 6-[3-(3-cyclohexen-1-ylcarboxamido)-phenyl7-2,3,5,6-tetrahydroimidazo [2,1-b]thiazole at 30 mg/kg.

[4] = test system: hookworm; assay: Activity against dog parasites: hookworm; conditions: single oral dose of 7.5 mg/kg
Description: (§2) A single oral dose of 7.5 mg/kg of the laevo amide of Example 12a to a dog was 100% effective against ascarids, hookworm and whipworm.

[5] = test system: whipworm; assay: Activity against dog parasites: whipworm; conditions: single oral dose of 7.5 mg/kg
Description: as §2

[6] = test system: adult Brugia pahangi; assay: Activity against Brugia pahangi in the cat (macrofilaricidal activity); conditions: five daily doses at 5 mg/kg s.c.
Description: Five daily doses of the laevo amide of Example 12a administered at 5 mg/kg s.c. to a cat infected with adult Brugia pahangi was 100% effective against this parasite.

[7] = test system: ascarids; assay: Activity against dog parasites: ascarids; conditions: single oral dose of 7.5 mg/kg
Description: as §2

[8] = test system: lungworm; assay: Activity against lungworm in a sheep with mixed roundworm infection; conditions: single subcutaneous injection of 5 mg/kg, solution of hydrochloride
Description: as §1

O=C(Nc1cccc(C2CN3CCSC3=N2)c1)C1CC=CCC1 (racemic) [Example 1]
inhibition in vivo at 5 mg/kg ([1]; Dose 5 mg/kg): 55% | inhibition in vivo at 50 mg/kg ([1]; Dose 50 mg/kg): 99% | removal of roundworms ([2]; single oral dose of 15 mg/kg, aqueous solution of hydrochloride salt): removed all roundworms present | activity (post-mortem fluke worm counts) [3]: > 95% | Fluke egg counts ([3]; 3-4 days after dosing): zero

CC1(C)C=C(C(=O)Nc2cccc(C3CN4CCSC4=N3)c2)C=CC1 (stereo not shown) [Example 2, 6-[3-(3,3-dimethyl-1,5-cyclohexadien-1-ylcarboxamido)phenyl]-2,3,5,6-tetrahydroimidazo[-2,1-b]thiazole hydrochloride]
inhibition in vivo at 5 mg/kg ([1]; Dose 5 mg/kg): 57% | inhibition in vivo at 50 mg/kg ([1]; Dose 50 mg/kg): 99%

O=C(Nc1cccc(C2CN3CCSC3=N2)c1)C1=CCC=CC1 (stereo not shown) [Example 3]
Activity % ([1]; Dose 5 mg/kg): 58% | Activity % ([1]; Dose 50 mg/kg): 100%

O=C(Nc1cccc(C2CN3CCSC3=N2)c1)C1C=CCC1 (stereo not shown) [Example 4, 6-[3-(2-cyclopenten-1-ylcarboxamido)phenyl]-2,3,5,6-tetrahydroimidazo[2,1-b]thiazole]
inhibition in vivo at 5 mg/kg ([1]; Dose 5 mg/kg): 100% | inhibition in vivo at 50 mg/kg ([1]; Dose 50 mg/kg): 100%

O=C(Nc1cccc(C2CN3CCSC3=N2)c1)C1C=CCCC1 (stereo not shown) [Example 5]
inhibition in vivo at 5 mg/kg ([1]; Dose 5 mg/kg): 65% | inhibition in vivo at 50 mg/kg ([1]; Dose 50 mg/kg): 100%

O=C(Nc1cccc(C2CN3CCSC3=N2)c1)C1=CC2(CC=C1)CCCC2 (stereo not shown) [Example 6]
inhibition in vivo at 5 mg/kg ([1]; Dose 5 mg/kg): 45% | inhibition in vivo at 50 mg/kg ([1]; Dose 50 mg/kg): 100%

CC1C=CCCC1C(=O)Nc1cccc(C2CN3CCSC3=N2)c1 (stereo not shown) [Example 7]
inhibition in vivo at 5 mg/kg ([1]; Dose 5 mg/kg): 55% | inhibition in vivo at 50 mg/kg ([1]; Dose 50 mg/kg): 100%

CC1C=CCC(C(=O)Nc2cccc(C3CN4CCSC4=N3)c2)C1 (stereo not shown) [Example 8]
inhibition in vivo at 5 mg/kg ([1]; Dose 5 mg/kg): 59% | inhibition in vivo at 50 mg/kg ([1]; Dose 50 mg/kg): 99%

O=C(Nc1cccc(C2CN3CCSC3=N2)c1)C1=CCCCC1 (stereo not shown) [Example 9]
inhibition in vivo at 5 mg/kg ([1]; Dose 5 mg/kg): 76% | inhibition in vivo at 50 mg/kg ([1]; Dose 50 mg/kg): 99%

O=C(Nc1cccc(C2CN3CCSC3=N2)c1)C1=CCCCCC1 (stereo not shown) [Example 10]
inhibition in vivo at 5 mg/kg ([1]; Dose 5 mg/kg): 90% | inhibition in vivo at 50 mg/kg ([1]; Dose 50 mg/kg): 100%

O=C(Nc1cccc(C2CN3CCSC3=N2)c1)C1CC=CC1 (stereo not shown) [Example 11]
inhibition in vivo at 5 mg/kg ([1]; Dose 5 mg/kg): 84% | inhibition in vivo at 50 mg/kg ([1]; Dose 50 mg/kg): 100%

O=C(Nc1cccc(C2CN3CCSC3=N2)c1)C1=CC2(CC=CCC2)CC=C1 (stereo not shown) [Example 12]
inhibition in vivo at 5 mg/kg ([1]; Dose 5 mg/kg): 19% | inhibition in vivo at 50 mg/kg ([1]; Dose 50 mg/kg): 94%

O=C(Nc1cccc(C2CN3CCSC3=N2)c1)C1CC=CCC1 (stereo not drawn) [Example 14a, 6-[3-(3-cyclohexen-1-ylcarboxamido)phenyl] -2,3,5,6-tetrahydroimidazo[2,l-b]thiazole]
Activity % ([1]; Dose 2.5 mg/kg): 100% | Activity % ([1]; Dose 10 mg/kg): 100% | effective against hookworm [4]: 100% | effective against whipworm [5]: 100% | worms removed ([2]; single subcutaneous injection of 5 mg/kg, solution of hydrochloride in propylene glycol 70%/benzyl alcohol 4%/water): > 99.9% | effective against Brugia pahangi [6]: 100% | effective against ascarids [7]: 100% | active against lungworm [8]: 100%

O=C(Nc1cccc(C2CN3C=CSC3=N2)c1)C1CC=CCC1 (stereo not shown) [Example 15]
inhibition in vivo at 5 mg/kg ([1]; Dose 5 mg/kg): 71% | inhibition in vivo at 50 mg/kg ([1]; Dose 50 mg/kg): 100%
